Assay results reported in patent publication US8003779B2, “Compositions and methods for studying and treating inflammatory diseases and disorders” (University of Rochester, priority 2005, dated 2011).

Experiments:
293HGLVP/CrePr cells = assay: RU486-induced CrePr activation of IL-1βXAT in 293HGLVP/CrePr cells; assay type: cell-based
Method: The IL-1β^XAT gene was transiently transfected into 293HGLVP/CrePr cells and the expression of IL-1β and lacZ were evaluated following RU486 (10^-7 M) administration.
IL-1β expression was assessed at the mRNA level by reverse transcriptase PCR (RT-PCR), and lacZ expression was evaluated by X-gal histochemistry.

mice = assay type: in vivo; conditions: perinatal systemic administration
[1] = literature (Loddick and Rothwell 1996; Yamasaki et al. 1995); cited from earlier work
[2] = test system: primary rat endothelial cells; assay: IL-1β regulation of inflammation-related genes in primary rat endothelial cells (mRNA, zymography); assay type: cell-based; conditions: murine IL-1β 10 ng/mL, over 72 hours
Method: The effects of IL-1β were evaluated in vitro utilizing primary rat endothelial cell cultures as a representative rodent cell type. In this experiment, murine IL-1β (10 ng/mL) was administered to cultured primary cells, and subsequently examined for the regulation of several inflammation-related genes at the transcript level over the course of 72 hours. These molecules include (A) the inducible isoform of cyclooxygenase (COX-2), intercellular adhesion molecule-1 (ICAM-1) and monocyte chemoattractant protein-1 (MCP-1), as well as (B) the collagenase-A (MMP-2) and -B (MMP-9). Panel (C) depicts enzyme activity levels of MMP-2 and MMP-9 as evaluated by zymography.
Moreover, a plethora of inflammation-related genes are in turn induced by IL-1β, leading to exacerbation of the inflammatory response. IL-1βregulates down-stream inflammatory genes, including the inducible isoform of cyclooxygenase (COX-2) and the intercellular adhesion molecule-1 (ICAM-1), the monocyte chemoattractant protein-1 (MCP-1), as well as collagenases A (MMP-2) and B (MMP-9). ICAM-1 and MCP-1 are molecules associated with the recruitment of circulating immune cells at the site of injury (i.e. neutrophils and monocytes, respectively), whereas MMP-2 and MMP-9 are collagenases associated with tissue destruction during arthritis and injury. Primary rat endothelial cells were employed as a representative rodent model to investigate the effects of IL-1β on the regulation of ICAM-1, MCP-1, MMP-2 and MMP-9 at the transcriptional level (mRNA) as well as the enzyme activity level (zymography). FIG. 5 summarizes the regulation of these genes over time.

For CC#C[C@]1(O)CC[C@H]2[C@@H]3CCC4=CC(=O)CCC4=C3[C@@H](c3ccc(N(C)C)cc3)C[C@@]21C [RU486, mifepristone], the “secreted IL-1β protein in supernatant media (ELISA)” value (293HGLVP/CrePr cells; RU486 10^-7 M) was “significantly higher levels”, the “IL-1β and lacZ mRNA (RT-PCR)” value (293HGLVP/CrePr cells; RU486 10^-7 M, IL-1βXAT-transfected cells) was “up-regulation” and the “number of X-gal positive cells” value (293HGLVP/CrePr cells; RU486 in culture media) was “significant increase”.

With “FIV(lacZ): FIV vector carrying the reporter gene lacZ, construct 12750 bp” the “duration of stable lacZ reporter expression” value (mice) was “over 3 months”.

For “IL-1ra: IL-1 receptor antagonist, competes for receptor binding”, the “tissue damage / injury in stroke models” value [1] is listed as “significantly attenuates tissue injury”.

B1: IL-1β: pro-inflammatory cytokine; murine IL-1β (10 ng/mL) in FIG. 5 (protein, UniProt P10749 118-269, looked up)
Interleukin-1 beta: VPIRQLHYRLRDEQQKSLVLSDPYELKALHLNGQNINQQVIFSMSFVQGEPSNDKIPVALGLKGKNLYLSCVMKDGTPTLQLESVDPKQYPKKKMEKRFVFNKIEVKSKVEFESAEFPNWYISTSQAEHKPVFLGNNSGQDIIDFTMESVSS
With B1 the “MMP-2 enzyme activity (zymography)” value [2] was “increased with time”, the “MMP-2 mRNA levels” value [2] was “not altered” and the “synthesis of COX-2, MCP-1, ICAM-1 and MMP-9” value [2] was “upregulated”. The “tissue damage / injury in stroke models” value [1] was “exacerbates damage”.
